In the experiment the target is T1, FIH^K106A (Homo sapiens, UniProt Q9NWT6, K106A).
T1 construct: encoding for full-length FIH with an N-terminal His6 tag or for FIH (K106A) with an N-terminal His6 tag; His6 (N); host or cells: Escherichia coli BL21
Put plainly: Affinity-based fluorescence polarization (FP) assay with the FIH K106A variant, without and with irradiation. It is filed as binding. The note with it: for Ki: read-out: Binding affinity to FIH^K106A: Ki. An excerpt: 4 (A) Light-induced click conjugation between NBA-ZG-2291 and FIH protein. (B) Light-induced binding affinity of NBA-ZG-2291 to FIH^ WT . (C) Light-induced binding affinity of NBA-ZG-2291 to FIH^ K106A . […] TEXT PRINTED IN THE PICTURE: (B) NBA-ZG-2291: Binding affinity to FIH^WT: Ki (nM): 414 ± 14 (Irradtion time (min): 0); Binding affinity to FIH^WT: Ki (nM): 74.1 ± 1.6 (Irradtion time (min): 15); Binding affinity to FIH^WT: Ki (nM): 46.7 ± 1.4 (Irradtion time (min): 30); Binding affinity to FIH^WT: Ki (nM): 33.2 ± 0.6 (Irradtion time (min): 60); Binding affinity to FIH^WT: Ki (nM): 30.2 ± 2.0 (Irradtion time (min): 90); Binding affinity to FIH^WT: Ki (nM): 32.1 ± 0.7 (Irradtion time (min): 120) | (B) Neg-1: Binding affinity to FIH^WT: Ki (nM): 423 ± 7 (Irradtion time (min): 0); Binding affinity to FIH^WT: Ki (nM): 408 ± 30 (Irradtion time (min): 15); Binding affinity to FIH^WT: Ki (nM): 459 ± 32 (Irradtion time (min): 30); Binding affinity to FIH^WT: Ki (nM): 427 ± 17 (Irradtion time (min): 60); Binding affinity to FIH^WT: Ki (nM): 396 ± 29 (Irradtion time (min): 90); Binding affinity to FIH^WT: Ki (nM): 428 ± 15 (Irradtion time (min): 120) | (B) Neg-2: Binding affinity to FIH^WT: Ki (nM): 742 ± 65 (Irradtion time (min): 0); Binding affinity to FIH^WT: Ki (nM): 799 ± 69 (Irradtion time (min): 15); Binding affinity to FIH^WT: Ki (nM): 758 ± 13 (Irradtion time (min): 30); Binding affinity to FIH^WT: Ki (nM): 744 ± 30 (Irradtion time (min): 60); Binding affinity to FIH^WT: Ki (nM): 788 ± 36 (Irradtion time (min): 90); Binding affinity to FIH^WT: Ki (nM): 786 ± 35 (Irradtion time (min): 120) | (C) NBA-ZG-2291: Binding affinity to FIH^K106A: Ki (nM): 442 ± 12 (Irradtion time (min): 0); Binding affinity to FIH^K106A: Ki (nM): 427 ± 22 (Irradtion time (min): 15); Binding affinity to FIH^K106A: Ki (nM): 426 ± 7 (Irradtion time (min): 30); Binding affinity to FIH^K106A: Ki (nM): 420 ± 11 (Irradtion time (min): 60); Binding affinity to FIH^K106A: Ki (nM): 418 ± 5 (Irradtion time (min): 90); Binding affinity to FIH^K106A: Ki (nM): 424 ± 12 (Irradtion time (min): 120) | (C) Neg-1: Binding affinity to FIH^K106A: Ki (nM): 271 ± 14 (Irradtion time (min): 0); Binding affinity to FIH^K106A: Ki (nM): 275 ± 15 (Irradtion time (min): 15); Binding affinity to FIH^K106A: Ki (nM): 268 ± 25 (Irradtion time (min): 30); Binding affinity to FIH^K106A: Ki (nM): 266 ± 22 (Irradtion time (min): 60); Binding affinity to FIH^K106A: Ki (nM): 264 ± 41 (Irradtion time (min): 90); Binding affinity to FIH^K106A: Ki (nM): 270 ± 3 (Irradtion time (min): 120) | (C) Neg-2: Binding affinity to FIH^K106A: Ki (nM): 567 ± 37 (Irradtion time (min): 0); Binding affinity to FIH^K106A: Ki (nM): 548 ± 61 (Irradtion time (min): 15); Binding affinity to FIH^K106A: Ki (nM): 521 ± 50 (Irradtion time (min): 30); Binding affinity to FIH^K106A: Ki (nM): 627 ± 17 (Irradtion time (min): 60); Binding affinity to FIH^K106A: Ki (nM): 565 ± 10 (Irradtion time (min): 90); Binding affinity to FIH^K106A: Ki (nM): 552 ± 38 (Irradtion time (min): 120) […]
To further verify the covalent binding between NBA-ZG-2291 and Lys106, the FIH^ K106A variant was produced and purified.
3. Experimental procedures
3.1 Fluorescence polarization (FP) assays1 with FIHWT and FIHK106A pET28a vectors encoding for full-length FIH with an N-terminal His6 tag or for FIH (K106A) with an N-terminal His6 tag were purchased from Nanjing Zoonbio Biotechnology. Both the FIHWT and FIHK106A protein were expressed from the respective plasmid in Escherichia coli BL21 at 20 °C for 16 h. E. coli cells were lysed and the lysate were clarified by centrifugation. His6-tagged FIHWT or FIHK106A was purified on a HisTrap affinity column (GE Healthcare) by elution with an imidazole gradient. The final purified proteins were stored in PBS buffer.
FP assays were carried out using 384 -well plates (#3575, Corning); the polarization signal was measured using a SPARK Multi-Mode Microplate Reader (Tecan). […]
For orientation: Fluorescence polarisation rises when a labelled molecule tumbles more slowly, as on binding a larger partner.

Broadly, the Ki is the equilibrium dissociation constant of an inhibitor or competing ligand from its target.

Like-named read-outs stand apart in the source and are kept apart here.

T1 sequence (Q9NWT6 whole entry K106A): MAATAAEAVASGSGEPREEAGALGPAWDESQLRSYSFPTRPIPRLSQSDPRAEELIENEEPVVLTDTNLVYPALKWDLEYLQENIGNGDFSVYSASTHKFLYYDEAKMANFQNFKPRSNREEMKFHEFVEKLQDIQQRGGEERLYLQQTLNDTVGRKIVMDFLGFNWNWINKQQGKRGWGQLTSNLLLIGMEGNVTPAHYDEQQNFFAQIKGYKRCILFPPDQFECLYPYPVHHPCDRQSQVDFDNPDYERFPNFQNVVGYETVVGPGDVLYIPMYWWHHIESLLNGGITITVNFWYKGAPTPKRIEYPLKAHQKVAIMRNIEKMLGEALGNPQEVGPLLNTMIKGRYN

With `O=C(O)CNC(=O)c1ncc(-c2cc(-c3ccc(CO)c([N+](=O)[O-])c3)no2)cc1O` [NBA-ZG-2291], the “Effect of irradiation time on binding affinity for the FIH^K106A variant” value (FP assay, varying irradiation times) is “remained unchanged”. Also, the inhibition constant (Ki) worked out at 442 ± 12 nM (irradiation time 0 min); 427 ± 22 nM (irradiation time 15 min); 426 ± 7 nM (irradiation time 30 min); 420 ± 11 nM (irradiation time 60 min); 418 ± 5 nM (irradiation time 90 min); 424 ± 12 nM (irradiation time 120 min).

For the origin of these results see article PMC12123601, “Light-Induced, Lysine-Targeting Irreversible Covalent Inhibition of the Human Oxygen Sensing Hydroxylase Factor Inhibiting HIF (FIH)” (Journal of the American Chemical Society, 2025).
